# Reference: patent US10131691B2, “Compositions and methods for specific regulation of pyruvate dehydrogenase kinase” (THE BOARD OF TRUSTEES OF THE LELAND STANFORD JUNIOR …, priority 2011, dated 2018)
# No end group written: not given here.
# Tested on: MARCKS
# Assay: MARCKS phosphorylation in hearts subjected to I/R
# Design: species or system rat
# Settings: vs control peptide
# Experimental: An ex vivo model of acute ischemic heart damage was used, which involves a 30 min equilibration period, followed by 30 min of global ischemia, which in turn is followed by 60 min of reperfusion. The hearts were perfused with 1 μM TAT or TAT-conjugated peptide. Normoxic control hearts were subjected to 90 min perfusion in the absence of ischemia. Coronary effluent was collected to determine creatine phosphokinase (CPK) release during the first 30 min of the reperfusion period. At the end of the reperfusion period, hearts were sliced into 1-mm-thick transverse sections and incubated in triphenyltetrazolium chloride solution (TTC, 1% in phosphate buffer, pH 7.4) at 37° C. for 15 min. Infarct size was expressed as a percentage of the risk zone (equivalent to total LV muscle mass) (methods described in Brandman et al., 2007, J. Biol. Chem., 282:4113-4123; Inagaki et al., 2003, Circulation, 108:869-875).
substance,measurement,value
"ALSTER (not fully specified (C-terminus); also: TAT47-57 conjugated via disulfide) [ΨPDK, for cells and hearts conjugated to TAT47-57 via disulfide bond]",I/R-induced MARCKS phosphorylation,an increase in I/R-induced MARCKS phosphorylation
